Experimental data: the supplement of paper PMC10307832

Columns and labels:
Assay in all cases: relative viability (nuclei count vs DMSO), 5 days (fraction); higher = more cells survive
AZ505 + Bortezomib = compound: C1CCC(CC1)N(CCNCCC2=C3C(=C(C=C2)O)NC(=O)CO3)C(=O)CCNCCC4=CC(=C(C=C4)Cl)Cl [AZ505] + CC(C)C[C@H](NC(=O)[C@H](Cc1ccccc1)NC(=O)c1cnccn1)B(O)O [Bortezomib] (partner 0.002 µM)
Summary of the method: (§1)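 After 5 days of treatment, lung cancer cells in 1536-well plates were fixed and stained in a single step (final 0.05% Triton X-100, 1% formaldehyde, 1 ug/ml Hoechst) and their nuclei counted on 4× images. Treatment had been applied by pin tool the day after seeding as one drug alone or as a fixed anchor-drug dose with five library-drug doses (not always all listed) in √10 steps. Relative viability is the nuclei count of treated wells divided by that of vehicle wells, and values are medians of duplicate plates.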

AZ505 + Decitabine = compound: C1CCC(CC1)N(CCNCCC2=C3C(=C(C=C2)O)NC(=O)CO3)C(=O)CCNCCC4=CC(=C(C=C4)Cl)Cl [AZ505] + Nc1ncn([C@H]2C[C@H](O)[C@@H](CO)O2)c(=O)n1 [Decitabine] (partner 2 µM)
Summary of the method: as §1

Dactolisib + Luminespib = compound: Cn1c(=O)n(-c2ccc(C(C)(C)C#N)cc2)c2c3cc(-c4cnc5ccccc5c4)ccc3ncc21 [Dactolisib] + CCNC(=O)c1noc(-c2cc(C(C)C)c(O)cc2O)c1-c1ccc(CN2CCOCC2)cc1 [Luminespib] (partner 0.01 µM)
Summary of the method: as §1

Dactolisib + Dasatinib = compound: Cn1c(=O)n(-c2ccc(C(C)(C)C#N)cc2)c2c3cc(-c4cnc5ccccc5c4)ccc3ncc21 [Dactolisib] + Cc1nc(Nc2ncc(C(=O)Nc3c(C)cccc3Cl)s2)cc(N2CCN(CCO)CC2)n1 [Dasatinib] (partner 0.075 µM)
Summary of the method: as §1

Cell Line | relative viability (AZ505 + Bortezomib; first compound 0.08 µM) | relative viability (AZ505 + Bortezomib; first compound 0.253 µM) | relative viability (AZ505 + Bortezomib; first compound 0.8 µM) | relative viability (AZ505 + Bortezomib; first compound 2.53 µM) | relative viability (AZ505 + Bortezomib; first compound 8 µM) | relative viability (AZ505 + Decitabine; first compound 0.08 µM) | relative viability (AZ505 + Decitabine; first compound 0.253 µM) | relative viability (AZ505 + Decitabine; first compound 0.8 µM) | relative viability (AZ505 + Decitabine; first compound 2.53 µM) | relative viability (AZ505 + Decitabine; first compound 8 µM) | relative viability (Dactolisib + Luminespib; first compound 0.002 µM) | relative viability (Dactolisib + Luminespib; first compound 0.006325 µM) | relative viability (Dactolisib + Luminespib; first compound 0.02 µM) | relative viability (Dactolisib + Luminespib; first compound 0.06325 µM) | relative viability (Dactolisib + Luminespib; first compound 0.2 µM) | relative viability (Dactolisib + Dasatinib; first compound 0.002 µM) | relative viability (Dactolisib + Dasatinib; first compound 0.006325 µM) | relative viability (Dactolisib + Dasatinib; first compound 0.02 µM) | relative viability (Dactolisib + Dasatinib; first compound 0.06325 µM) | relative viability (Dactolisib + Dasatinib; first compound 0.2 µM)
NCI-H1650 | 0.234 | 0.189 | 0.205 | 0.248 | 0.188 | 0.367 | 0.405 | 0.502 | 0.368 | 0.427 | 0.19 | 0.185 | 0.192 | 0.206 | 0.202 | 0.306 | 0.3 | 0.296 | 0.245 | 0.205
NCI-H1651 | 0.882 | 0.956 | 0.909 | 0.927 | 1.03 | 0.55 | 0.576 | 0.672 | 0.727 | 0.598 | 1.13 | 0.818 | 0.863 | 0.309 | 0.321 | 0.388 | 0.435 | 0.318 | 0.238 | 0.177
NCI-H1666 | 0.799 | 0.708 | 0.658 | 0.778 | 0.705 | 0.69 | 0.667 | 0.752 | 0.659 | 0.694 | 1.1 | 0.963 | 1.02 | 0.746 | 0.788 | 0.877 | 0.793 | 0.791 | 0.677 | 0.588
NCI-H1734 | 0.78 | 0.978 | 0.976 | 0.936 | 0.861 | 0.52 | 0.501 | 0.45 | 0.541 | 0.506 | 0.151 | 0.211 | 0.196 | 0.184 | 0.169 | 0.499 | 0.362 | 0.407 | 0.2 | 0.162
NCI-H1755 | 0.952 | 0.988 | 0.949 | 0.961 | 0.93 | 0.721 | 0.727 | 0.724 | 0.711 | 0.772 | 0.298 | 0.399 | 0.418 | 0.417 | 0.359 | 0.392 | 0.401 | 0.379 | 0.412 | 0.278
NCI-H1792 | 0.785 | 1.07 | 0.927 | 0.94 | 1 | 0.494 | 0.481 | 0.602 | 0.51 | 0.604 | 0.259 | 0.403 | 0.404 | 0.142 | 0.11 | 0.752 | 0.724 | 0.724 | 0.338 | 0.206
NCI-H1915 | 0.86 | 0.968 | 0.861 | 0.87 | 0.978 | 0.278 | 0.303 | 0.29 | 0.27 | 0.279 | 0.78 | 0.823 | 0.692 | 0.516 | 0.442 | 0.357 | 0.332 | 0.308 | 0.241 | 0.175
NCI-H1975 | 0.333 | 0.41 | 0.335 | 0.327 | 0.356 | 0.345 | 0.355 | 0.407 | 0.322 | 0.403 | 0.133 | 0.157 | 0.181 | 0.144 | 0.123 | 0.35 | 0.305 | 0.246 | 0.167 | 0.135
NCI-H1993 | 0.894 | 1.09 | 0.937 | 1.25 | 1.04 | 0.595 | 0.602 | 0.575 | 0.617 | 0.594 | 0.752 | 0.738 | 0.637 | 0.442 | 0.488 | 0.553 | 0.413 | 0.498 | 0.505 | 0.52
NCI-H2009 | 0.982 | 0.929 | 1.04 | 0.657 | 0.901 | 0.451 | 0.397 | 0.361 | 0.362 | 0.365 | 1.14 | 1.05 | 0.89 | 1 | 0.362 | 0.3 | 0.283 | 0.291 | 0.194 | 0.154
NCI-H2023 | 0.845 | 0.872 | 0.911 | 1.18 | 1.01 | 0.196 | 0.242 | 0.228 | 0.255 | 0.26 | 0.643 | 0.562 | 0.217 | 0.0703 | 0.0888 | 0.487 | 0.454 | 0.376 | 0.0921 | 0.0851
NCI-H2085 | 0.958 | 1.01 | 0.934 | 1.05 | 1.1 | 0.571 | 0.551 | 0.496 | 0.565 | 0.569 | 0.387 | 0.388 | 0.374 | 0.208 | 0.239 | 0.179 | 0.249 | 0.229 | 0.169 | 0.209
NCI-H2087 | 0.686 | 0.845 | 0.732 | 0.849 | 0.91 | 0.224 | 0.254 | 0.275 | 0.289 | 0.277 | 0.281 | 0.164 | 0.146 | 0.128 | 0.121 | 0.782 | 0.771 | 0.86 | 0.359 | 0.272
NCI-H2126 | 1.11 | 1.09 | 1.08 | 1.09 | 1.04 | 0.589 | 0.6 | 0.547 | 0.563 | 0.59 | 0.803 | 0.868 | 0.809 | 0.334 | 0.296 | 0.599 | 0.589 | 0.504 | 0.385 | 0.279
NCI-H2347 | – | 0.801 | 0.75 | – | 0.681 | 0.545 | 0.572 | 0.511 | 0.461 | 0.505 | 0.49 | 0.433 | 0.467 | 0.286 | 0.284 | 0.284 | 0.306 | 0.313 | 0.291 | 0.253
NCI-H2405 | 0.733 | 0.802 | 0.81 | 0.859 | 0.925 | 0.605 | – | 0.702 | 0.703 | 0.647 | 0.665 | 0.689 | 0.755 | 0.393 | 0.272 | 0.224 | 0.238 | 0.207 | 0.213 | 0.187
